Counter-ions that a name gives are not always drawn.
Tests used:
OCI-LY10 = test: Growth inhibition, Alamar Blue; assay type: cell-based; settings: Homo sapiens, 72 h; OCI-LY10, NHL, ABC-DLBCL; 3 days
Description: (§1) Cell lines were obtained from American Type Culture Collection (ATCC) and maintained according to the supplier's instructions, and from Dr. Mark Minden (Princess Margaret Cancer Centre, Toronto, Canada). Short tandem repeat (STR) profiling was used to verify authenticity of the cell lines. Peripheral blood from healthy human donors was obtained from the Hematology Malignancy Tissue Bank at the University Health Network. Peripheral blood mononuclear cells (PBMC) were prepared from the blood by density gradient centrifugation using Ficoll-Paque PLUS by manufacturer's instructions (GE Healthcare Life Sciences). […] Compound (I) tartrate was prepared as a 10 mM stock solution in 100% DMSO. The stock solution was diluted with RPMI-1640 (Invitrogen) containing 10% FBS (fetal bovine serum) such that the final concentrations ranged from 300 fM to 300 μM. Aliquots (20 μL) from each concentration were overlaid to 180 μL of pre-seeded cells to achieve final concentrations of 30 fM to 30 μM. After 3 days, cell growth in each well was assessed by Alamar Blue assay reagent (Invitrogen). Raw fluorescence (λEM=590 nm) values were adjusted by subtracting the average of the baseline readings from untreated cells assessed one day after cell seeding. Relative cell growth was calculated by comparing to DMSO-treated cells. The concentrations at which cell growth was inhibited by 50% (growth inhibition IC50) were calculated using GraphPad PRISM software (GraphPad Software Inc.).

OCI-LY8 = test: Growth inhibition, Alamar Blue; assay type: cell-based; settings: Homo sapiens, 72 h; OCI-LY8, NHL, GCB-DLBCL; 3 days
Description: as §1

HL-60 = test: Growth inhibition, Alamar Blue; assay type: cell-based; settings: Homo sapiens, 72 h; HL-60, AML M2; FLT3 wild-type, protein expressed; 3 days
Description: as §1

NB4 = test: Growth inhibition, Alamar Blue; assay type: cell-based; settings: Homo sapiens, NB-4, 72 h; NB4, AML M3; 3 days
Description: as §1

NALM-16 = test: Growth inhibition, Alamar Blue; assay type: cell-based; settings: Homo sapiens, NALM16, 72 h; NALM-16, B-ALL; 3 days
Description: as §1

OCI-AML5 = test: Growth inhibition, Alamar Blue; assay type: cell-based; settings: Homo sapiens, OCI-AML-5, 72 h; OCI-AML5, AML M4; 3 days
Description: as §1

JURKAT = test: Growth inhibition, Alamar Blue; assay type: cell-based; settings: Homo sapiens, 72 h, T-ALL, 3 days
Description: as §1

U937 = test: Growth inhibition, Alamar Blue; assay type: cell-based; settings: Homo sapiens, U-937, 72 h; U937, AML M5; 3 days
Description: as §1

NALM-6 = test: Growth inhibition, Alamar Blue; assay type: cell-based; settings: Homo sapiens, 72 h; NALM-6, B-ALL; 3 days
Description: as §1

SU-DHL-8 = test: Growth inhibition, Alamar Blue; assay type: cell-based; settings: Homo sapiens, 72 h; SU-DHL-8, NHL, GCB-DLBCL; 3 days
Description: as §1

THP-1 = test: Growth inhibition, Alamar Blue; assay type: cell-based; settings: Homo sapiens, 72 h; THP-1, AML M5; FLT3 wild-type, protein expressed; 3 days
Description: as §1

OCI-AML3 = test: Growth inhibition, Alamar Blue; assay type: cell-based; settings: Homo sapiens, OCI-AML-3, 72 h; OCI-AML3, AML M4; 3 days
Description: as §1

MOLM-14 = test: Growth inhibition, Alamar Blue; assay type: cell-based; settings: Homo sapiens, 72 h; MOLM-14, AML M5; FLT3 ITD + wild-type, protein expressed; 3 days
Description: as §1

RAJI = test: Growth inhibition, Alamar Blue; assay type: cell-based; settings: Homo sapiens, 72 h, NHL, Burkitt's lymphoma, 3 days
Description: as §1

OCI-AML4 = test: Growth inhibition, Alamar Blue; assay type: cell-based; settings: Homo sapiens, 72 h; OCI-AML4, AML M4; 3 days
Description: as §1

K562 = test: Growth inhibition, Alamar Blue; assay type: cell-based; settings: Homo sapiens, 72 h; K562, CML; 3 days
Description: as §1

DAUDI = test: Growth inhibition, Alamar Blue; assay type: cell-based; settings: Homo sapiens, 72 h, NHL, Burkitt's lymphoma, 3 days
Description: as §1

cell surface FLT3-ITD = test: Flow cytometry, cell surface FLT3 in primary human AML cells; assay type: cell-based; settings: FLT3-ITD positive primary AML cells, viable CD14− blasts, 48 and 72 hours, dose-dependent
Description: Patient samples were obtained from Dr. Mark Minden (Princess Margaret Cancer Centre, Toronto, Ontario, Canada). FLT3-ITD positive AML cells were treated with the indicated concentrations of Compound (I) for 48 and 72 hours at 37° C. and 5% CO2 and stained with APC-CD45, PECy7-CD38, APC/Fire 750-CD33, PerCP-CD14, PE-FLT3 (Beckman Coulter, Cat. IM2234U), PE/Dazzle 594-CD117 (BioLegend, Cat. #313226) or isotype control antibodies and analyzed on a BD LSRFortessa II flow cytometry analyzer. Data were analyzed using FlowJo software and representative data are shown. Compound (I) treatment increases the cell surface expression of FLT3 and c-KIT in a dose-dependent manner in viable CD14^− AML blast cells. Similar results were obtained in additional FLT3-ITD positive primary AML samples (data not shown).

FLT3 = target: T1, FLT3 (Homo sapiens, UniProt P36888); test: Radiometric HotSpot kinase assay, FLT3; assay type: biochemical; settings: ATP 50 μM; peptide substrate 5 μM
T1 construct: purchased Reaction Biology Corp. (Malvern, PA, USA)
T1 sequence (P36888 27-993): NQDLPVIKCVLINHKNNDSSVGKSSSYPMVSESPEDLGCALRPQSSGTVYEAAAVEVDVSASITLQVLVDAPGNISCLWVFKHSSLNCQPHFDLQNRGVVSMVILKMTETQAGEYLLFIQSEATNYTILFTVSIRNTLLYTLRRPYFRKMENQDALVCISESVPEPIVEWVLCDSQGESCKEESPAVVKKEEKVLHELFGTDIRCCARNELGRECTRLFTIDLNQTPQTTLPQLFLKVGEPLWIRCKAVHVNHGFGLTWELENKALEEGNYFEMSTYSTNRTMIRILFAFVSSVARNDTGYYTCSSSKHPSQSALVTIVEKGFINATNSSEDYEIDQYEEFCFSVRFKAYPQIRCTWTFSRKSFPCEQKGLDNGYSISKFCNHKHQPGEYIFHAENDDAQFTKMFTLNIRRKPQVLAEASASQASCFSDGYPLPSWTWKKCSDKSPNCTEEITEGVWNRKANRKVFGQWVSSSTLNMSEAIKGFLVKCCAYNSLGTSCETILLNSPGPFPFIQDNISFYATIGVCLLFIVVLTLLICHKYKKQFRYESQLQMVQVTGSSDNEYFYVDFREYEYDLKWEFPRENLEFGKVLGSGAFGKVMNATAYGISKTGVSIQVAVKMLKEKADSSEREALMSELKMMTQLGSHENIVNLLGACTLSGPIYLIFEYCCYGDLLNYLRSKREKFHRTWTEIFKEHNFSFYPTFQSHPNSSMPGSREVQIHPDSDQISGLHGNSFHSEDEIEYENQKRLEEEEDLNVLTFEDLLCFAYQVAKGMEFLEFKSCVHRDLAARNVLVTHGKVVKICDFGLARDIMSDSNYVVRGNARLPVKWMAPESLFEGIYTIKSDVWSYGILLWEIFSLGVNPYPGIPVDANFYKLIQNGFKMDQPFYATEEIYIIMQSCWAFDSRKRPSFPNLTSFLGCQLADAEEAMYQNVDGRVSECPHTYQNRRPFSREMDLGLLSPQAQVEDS
Description: Kinase IC50 values were determined by Reaction Biology Corp. (Malvern, PA, USA) in the Radiometric HotSpot™ Assay using recombinantly expressed kinase enzymes. Compound (I) was tested in a 10-dose IC50 curve in duplicate. Enzymes were tested at the Km [ATP] for each enzyme using the Reaction Biology binning structure. Kinase reactions were initiated by the addition of protein or peptide substrate and [γ-^33P]-adenosine triphosphate (ATP). Phosphorylated substrates were captured by spotting of the reaction mix on filter membranes, and enzymatic activity was quantified by liquid scintillation counting. Substrates and ATP concentrations are as follows: • FLT3: Peptide substrate, [EAIYAAPFAKKK], 5 μM: ATP 50 μM • FLT3-ITD (internal tandem duplication): Peptide substrate, [EAIYAAPFAKKK], 20 μM: ATP, 30 μM • FLT3 (D835Y): Peptide substrate, [EAIYAAPFAKKK], 5 μM: ATP 20 μM • TAK1: Casein, 1 mg/mL: ATP, 20 μM

CN1CCN(c2ccc3nc(-c4c(N)c5ccsc5[nH]c4=O)[nH]c3c2)CC1 [Compound (I) tartrate, 4-amino-5-(6-(4-methylpiperazin-1-yl)-1H-benzo[d]imidazol-2-yl)thieno[2,3-b]pyridin-6(7H)-one]
IC50 (OCI-LY10): 570 nM
IC50 (OCI-LY8): 3600 nM
IC50 (HL-60): 1200 nM
IC50 (NB4): 940 nM
IC50 (NALM-16): 1100 nM
IC50 (OCI-AML5): 270 nM
IC50 (JURKAT): 3400 nM
IC50 (U937): 770 nM
IC50 (NALM-6): 10000 nM
IC50 (SU-DHL-8): 2600 nM
IC50 (THP-1): 1300 nM
IC50 (OCI-AML3): ≥ 30000 nM
IC50 (MOLM-14): 4.7 nM
IC50 (RAJI): 6600 nM
IC50 (OCI-AML4): 160 nM
IC50 (K562): 6000 nM
IC50 (DAUDI): 1300 nM
cell surface expression of FLT3 (cell surface FLT3-ITD): increases
IC50 (FLT3): 0.043 nM

— patent US20250049787A1, “TREATMENT FOR ACUTE MYELOID LEUKEMIA OR LYMPHOMA” (UNIVERSITY HEALTH NETWORK, priority 2021, published 2025)
